Results: PMC6112376, “Comprehensive Analyses and Prioritization of Tox21 10K Chemicals Affecting Mitochondrial Function by in-Depth Mechanistic Studies” (Environmental Health Perspectives, 2018)
Where two headings read alike, the source gives them in different places.

How the values were obtained:
[1] = test system: mitochondrial respiratory chain complex III; type: biochemical, rat
[2] = test system: Caenorhabditis elegans (Bristol N2); assay: C. elegans larval development and growth assay
[3] = test system: HepG2 cells; assay: ROS-Glo hydrogen peroxide (ROS) assay; type: cell-based, human; settings: Homo sapiens, HepG2, 2 h, read-out: ROS (HepG2) EC50
[4] = test system: mitochondrial respiratory chain complex I; type: biochemical, rat
[5] = test system: rat primary hepatocytes
[6] = test system: HepG2 cells; assay: cells; settings: Homo sapiens
[7] = test system: rat primary hepatocytes; assay: MMP assay in rat primary hepatocytes; settings: Rattus norvegicus, Hepatocyte
[8] = test system: HepG2 cells; settings: cited from earlier work
[9] = test system: hNSC; assay: MMP assay in human neural stem cells (hNSC); type: cell-based; settings: Homo sapiens, Neural stem cell, 1 h, read-out: hNSC IC50 (MMP)
[10] = test system: Nrf2/ARE (ARE-bla HepG2 cells); assay: ARE β-lactamase reporter gene assay; type: cell-based, human; settings: Homo sapiens, HepG2, 16 h, read-out: ARE (HepG2) EC50
[11] = test system: mitochondrial respiratory chain complex IV; type: biochemical, rat
[12] = test system: Caenorhabditis elegans strain PE255; assay: In vivo C. elegans ATP status assay; settings: Caenorhabditis elegans, read-out: LEC LUM: lowest effect concentration for luminescence, a measure of nematode ATP content
[13] = test system: mitochondrial respiratory chain complex V; type: biochemical, rat
[14] = test system: Caenorhabditis elegans (Bristol N2); settings: Bristol N2 (wild type), Caenorhabditis elegans, in vivo
[15] = test system: HeLa cells expressing YFP-Parkin; assay: Parkin translocation assay; type: cell-based, human
[16] = test system: isolated rat liver mitochondria; assay: Oxygen consumption, Clark-type oxygen electrode; type: biochemical
[17] = target: T1, mitochondrial respiratory chain complex II (Rattus norvegicus, UniProt P21913+Q641Z9+Q6PCT8+Q920L2); assay: Respiratory chain complex II activity; type: biochemical; settings: tested up to 100μM
T1 construct: Submitochondrial particles were prepared by subjecting the intact rat mitochondria, isolated as described above, to three successive freeze–thaw cycles; from tissue; host or cells: rat liver mitochondria (submitochondrial particles)
T1 sequence (Q920L2 35-656): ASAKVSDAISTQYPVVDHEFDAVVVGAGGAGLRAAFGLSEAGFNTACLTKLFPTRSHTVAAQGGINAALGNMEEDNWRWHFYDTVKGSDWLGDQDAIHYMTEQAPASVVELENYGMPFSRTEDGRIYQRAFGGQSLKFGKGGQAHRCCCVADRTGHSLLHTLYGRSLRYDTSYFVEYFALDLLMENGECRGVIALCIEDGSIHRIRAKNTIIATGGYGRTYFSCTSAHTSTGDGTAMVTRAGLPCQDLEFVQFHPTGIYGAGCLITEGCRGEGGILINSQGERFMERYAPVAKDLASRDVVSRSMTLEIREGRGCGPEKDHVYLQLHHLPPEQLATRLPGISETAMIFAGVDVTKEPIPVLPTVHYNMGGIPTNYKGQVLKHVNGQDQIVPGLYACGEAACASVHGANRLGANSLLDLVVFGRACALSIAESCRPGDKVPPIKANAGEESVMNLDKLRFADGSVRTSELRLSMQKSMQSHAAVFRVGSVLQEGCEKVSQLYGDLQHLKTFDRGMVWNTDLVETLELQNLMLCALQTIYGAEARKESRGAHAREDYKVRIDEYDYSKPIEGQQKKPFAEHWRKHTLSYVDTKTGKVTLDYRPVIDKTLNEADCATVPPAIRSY
T1 sequence (P21913 31-282): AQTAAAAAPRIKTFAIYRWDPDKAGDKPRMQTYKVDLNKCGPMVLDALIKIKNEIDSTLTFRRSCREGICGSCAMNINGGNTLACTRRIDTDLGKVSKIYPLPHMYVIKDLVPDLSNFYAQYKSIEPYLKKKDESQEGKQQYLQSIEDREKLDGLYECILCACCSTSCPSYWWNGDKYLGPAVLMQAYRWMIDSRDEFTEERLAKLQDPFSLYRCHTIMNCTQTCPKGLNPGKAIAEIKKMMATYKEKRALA
T1 sequence (Q641Z9 1-169): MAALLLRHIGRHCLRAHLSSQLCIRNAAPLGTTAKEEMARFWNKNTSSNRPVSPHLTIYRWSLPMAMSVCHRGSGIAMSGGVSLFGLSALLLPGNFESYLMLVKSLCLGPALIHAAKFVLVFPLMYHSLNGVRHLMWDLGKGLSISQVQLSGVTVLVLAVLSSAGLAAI
T1 sequence (Q6PCT8 57-159): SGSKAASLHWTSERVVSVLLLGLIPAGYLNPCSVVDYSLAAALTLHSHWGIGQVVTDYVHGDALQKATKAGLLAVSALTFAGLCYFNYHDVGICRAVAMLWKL

[18] = test system: HepG2 cells; assay: Intracellular ATP content (cell viability) assay; type: cell-based, human; settings: Homo sapiens, HepG2, 40 h

C=C(C)[C@H]1Cc2c(ccc3c2O[C@@H]2COc4cc(OC)c(OC)cc4[C@@H]2C3=O)O1 [Rotenone, reference compound]
Complex III % inhibition (activity call) [1]: Inactive | larval growth effect at 0.5μM ([2]; 0.5 µM): severe larval growth arrest | minimal effective concentration ([2]; Caenorhabditis elegans, read-out: LEC EXT: lowest effect concentration for extinction, a measure of nematode size): 0.05 µM | EC50 [3]: 4040 nM | inhibitory effect on Complex I at (concentration) [4]: 0.032 µM | Complex I % inhibition ([4]; at 0.032μM): 37.5±3.32 at 0.032μM % | MMP assays efficacy (%) Rat Hepatocytes [5]: -86+39% | Rat hepatocytes (efficacy) (MMP) [5]: 0.36±0.22 ( −85.9±10.7 ) % | IC50 ([6]; HepG2, 1 h, read-out: HepG2 IC50 Galactose (MMP)): 31.8 µM | IC50 ([6]; HepG2, 1 h, read-out: HepG2 IC50 Glucose (MMP)): 44.7 µM | IC50 ([6]; HepG2, read-out: MMP assays IC50 (µM) HepG2): 0.0123 µM | Emax ([6]; HepG2, read-out: MMP assays efficacy (%) HepG2): 95% | IC50 ([7]; 1 h, read-out: Rat hepatocytes IC50 (MMP)): 0.36 µM | IC50 ([7]; read-out: MMP assays IC50 (µM) Rat Hepatocytes): 0.2 ± 0.3 µM | MMP assays efficacy (%) qHTS-HepG2 [8]: -104±7% | IC50 ([8]; read-out: MMP assays IC50 (µM), qHTS-HepG2): 17.4 ± 1.94 µM | IC50 [9]: 23700 nM | EC50 [10]: 50 ± 20 nM | Complex IV % inhibition (activity call) [11]: Inactive | minimal effective concentration [12]: 0.5 µM | Complex V % inhibition (activity call) [13]: Inactive | inhibitory effect at (concentration) on larval growth in the C. elegans assay [14]: 0.05 µM | Parkin recruitment [15]: Inactive | Parkin translocation into mitochondria (in words) ([15]; 3 h): did not induce Parkin translocation | Potential Mechanism [16]: Inhibitor (at complex I) | effect on mitochondrial respiration (in words) [16]: only inhibited glutamate/malate-driven respiration, but not succinate-driven respiration | I-ADP, % of control (O2 consumption rate) ([16]; 0.00128 µM): 91 (44.7) % of control | I-sub, % of control (O2 consumption rate) ([16]; 0.00128 µM): 113 (15.6) % of control | II-ADP, % of control (O2 consumption rate) ([16]; 0.00128 µM): 98 (87.5) % of control | II-sub, % of control (O2 consumption rate) ([16]; 0.00128 µM): 94 (25.3) % of control | I-ADP, % of control (O2 consumption rate) ([16]; 0.0064 µM): 81 (40.2) % of control | I-sub, % of control (O2 consumption rate) ([16]; 0.0064 µM): 114 (15.8) % of control | II-ADP, % of control (O2 consumption rate) ([16]; 0.0064 µM): 83 (74.3) % of control | II-sub, % of control (O2 consumption rate) ([16]; 0.0064 µM): 56 (15.2) % of control | I-ADP, % of control (O2 consumption rate) ([16]; 0.032 µM): 27 (13.1) % of control | I-sub, % of control (O2 consumption rate) ([16]; 0.032 µM): 86 (11.9) % of control | II-ADP, % of control (O2 consumption rate) ([16]; 0.032 µM): 97 (86.1) % of control | II-sub, % of control (O2 consumption rate) ([16]; 0.032 µM): 79 (21.4) % of control | I-ADP, % of control (O2 consumption rate) ([16]; 0.16 µM): 20 (9.9) % of control | I-sub, % of control (O2 consumption rate) ([16]; 0.16 µM): 71 (9.9) % of control | II-ADP, % of control (O2 consumption rate) ([16]; 0.16 µM): 107 (95.0) % of control | II-sub, % of control (O2 consumption rate) ([16]; 0.16 µM): 97 (26.3) % of control | I-ADP, % of control (O2 consumption rate) ([16]; 0.8 µM): 18 (8.9) % of control | I-sub, % of control (O2 consumption rate) ([16]; 0.8 µM): 64 (8.9) % of control | II-ADP, % of control (O2 consumption rate) ([16]; 0.8 µM): 99 (88.3) % of control | II-sub, % of control (O2 consumption rate) ([16]; 0.8 µM): 99 (26.9) % of control | I-ADP, % of control (O2 consumption rate) ([16]; 4 µM): 19 (9.5) % of control | I-sub, % of control (O2 consumption rate) ([16]; 4 µM): 64 (8.8) % of control | II-ADP, % of control (O2 consumption rate) ([16]; 4 µM): 97 (86.3) % of control | II-sub, % of control (O2 consumption rate) ([16]; 4 µM): 97 (26.2) % of control | I-ADP, % of control (O2 consumption rate) ([16]; 20 µM): 18 (8.8) % of control | I-sub, % of control (O2 consumption rate) ([16]; 20 µM): 62 (8.6) % of control | II-ADP, % of control (O2 consumption rate) ([16]; 20 µM): 95 (84.3) % of control | II-sub, % of control (O2 consumption rate) ([16]; 20 µM): 107 (28.9) % of control | Complex II % inhibition (activity call) [17]: Inactive | IC50 ([18]; read-out: ATP (HepG2, galactose) IC50): 1630 nM | IC50 ([18]; read-out: ATP (HepG2, glucose) IC50): 1050 nM
